Test results: patent US8846729B2, “2-thio-1,3,4-oxadiazoles azetidine derivatives as sphingosine-1 phosphate receptors modulators” (Allergan, Inc., priority 2012, dated 2014)
pEC50: −log10 of the molar value.

These molecules were tested against T1, human S1P1 receptor (Homo sapiens, UniProt P21453) (assay: GTP γ35S binding assay for S1P1 activity). Details: membranes of cells stably expressing S1P1 receptor, agonist potency.
T1 construct: expressed in transfected cells; membranes used
T1 sequence (P21453 whole entry): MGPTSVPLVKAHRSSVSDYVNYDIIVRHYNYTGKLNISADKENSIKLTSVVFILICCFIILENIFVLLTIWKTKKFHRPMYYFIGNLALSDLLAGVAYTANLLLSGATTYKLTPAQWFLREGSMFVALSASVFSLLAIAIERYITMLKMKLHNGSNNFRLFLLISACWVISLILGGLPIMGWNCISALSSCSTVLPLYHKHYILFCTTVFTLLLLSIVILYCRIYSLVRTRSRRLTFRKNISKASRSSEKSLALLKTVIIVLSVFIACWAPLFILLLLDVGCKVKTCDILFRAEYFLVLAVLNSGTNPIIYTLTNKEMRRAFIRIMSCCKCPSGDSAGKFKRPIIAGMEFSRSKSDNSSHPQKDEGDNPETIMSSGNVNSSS
Type: biochemical
Procedure: Compounds were synthesized and tested for S1P1 activity using the GTP γ^355 binding assay. These compounds may be assessed for their ability to activate or block activation of the human S1P1 receptor in cells stably expressing the S1P1 receptor.
[…] binding was measured in the medium containing (mM) HEPES 25, pH 7.4, MgCl2 10, NaCl 100, dithitothreitol 0.5, digitonin 0.003%, 0.2 nM GTP γ^35S, and 5 μg membrane protein in a volume of 150 μl. Test compounds were included in the concentration range from 0.08 to 5,000 nM unless indicated otherwise. Membranes were incubated with 100 μM 5′-adenylylimmidodiphosphate for 30 min, and subsequently with 10 μM GDP for 10 min on ice. Drug solutions and membrane were mixed, and then reactions were initiated by adding GTP γ^355 and continued for 30 min at 25° C. Reaction mixtures were filtered over Whatman GF/B filters under vacuum, and washed three times with 3 mL of ice-cold buffer (HEPES 25, pH7.4, MgCl2 10 and NaCl 100). Filters were dried and mixed with scintillant, and counted for ^35S activity using a β-counter. Agonist-induced GTP γ^355 binding was obtained by subtracting that in the absence of agonist. Binding data were analyzed using a non-linear regression method. In case of antagonist assay, the reaction mixture contained 10 nM […] in the presence of test antagonist at concentrations ranging from 0.08 to 5000 nM.
Work on `O=C(O)C1CN(Cc2ccc(-c3nnc(SCc4cccc(Cl)c4F)o3)cc2)C1` [Compound 1, 1-(4-{5-[(3-Chloro-2-fluorobenzyl)thio]-1,3,4-oxadiazol-2-yl}benzyl)azetidine-3-carboxylic acid] yielded a pEC50 of 7.73.
Work on `Cc1cc(CN2CC(C(=O)O)C2)ccc1-c1nnc(SC(C)c2cccc([N+](=O)[O-])c2)o1` (stereo not drawn) [Compound 2, 1-[3-Methyl-4-(5-{[1-(3-nitrophenyl)ethyl]thio}-1,3,4-oxadiazol-2-yl)benzyl]azetidine-3-carboxylic acid] yielded a pEC50 of 7.78.
`CCC(Sc1nnc(-c2ccc(CN3CC(C(=O)O)C3)cc2C)o1)c1cccc([N+](=O)[O-])c1` (stereo not drawn) [Compound 3, 1-[3-Methyl-4-(5-{[1-(3-nitrophenyl)propyl]thio}-1,3,4-oxadiazol-2-yl)benzyl]azetidine-3-carboxylic acid] was tested, and the pEC50 was 7.22.
